Results taken from publication PMC3757248, “Antiestrogen-binding site ligands induce autophagy in myeloma cells that proceeds through alteration of cholesterol metabolism” (Oncotarget, 2013).

Tests used:
OPM-2 = system: OPM-2; parameters: method as in earlier work; details: cited from earlier work
RPMI 8226 = system: RPMI 8226; parameters: method as in earlier work; details: cited from earlier work
LP-1 = system: LP-1; parameters: method as in earlier work; details: cited from earlier work
NCI-H929 = system: NCI-H929; parameters: method as in earlier work; details: cited from earlier work
AEBS = AEBS (Homo sapiens, UniProt Q15125+Q9UBM7); assay: Binding to the AEBS in HMCLs; parameters: endogenous in cells; host or cells: RPMI 8226 and LP-1 human multiple myeloma cell lines
MM tumors = system: MM tumors; parameters: method as in PMID 20033476, PMID 16753295; details: xenografted mice bearing MM tumors; cited from earlier work
Karpas 620 = system: Karpas 620; parameters: method as in earlier work; details: cited from earlier work
LP-1 cells [1] = assay: Electron microscopy for MLBs, AVs and UVs; type: cell-based, human; details: 48 h, 10 μM drug (PBPE 40 μM)
HMCLs = assay: Free sterol accumulation in HMCLs; type: cell-based, human
Protocol: (§1) The organic layer was reduced to dryness under a flux of argon and the residue was resuspended in ethanol. Sterols were analyzed by liquid chromatography and gas-liquid chromatography as described before. Neutral lipids and sphingomyelin analyses were done according to previously published procedures.

LP-1 cells [2] = assay: Presence of 5,6-EC in cells by GC/MS; type: cell-based, human; details: 48 h, 10 μM drug (PBPE 40 μM)
Protocol: as §1

RPMI 8226 cells [3] = assay: Presence of 5,6-EC in cells by GC/MS; type: cell-based, human; details: 48 h, 10 μM drug (PBPE 40 μM)
Protocol: as §1

RPMI 8226 and LP-1 cells [4] = assay: Intracellular free sterol, TG and SM contents; type: cell-based, human; details: 5 µM OHT, 20 µM PBPE or 5 µM RU 58668 for three days
Protocol: as §1

LP-1 cells [5] = assay: Sterols accumulated in cells, HPLC and GC/MS; type: cell-based, human; details: LP1, 48 h incubation
Protocol: as §1

RPMI 8226 cells [6] = assay: Sterols accumulated in cells, HPLC and GC/MS; type: cell-based, human; details: RPMI 8226, 48 h incubation
Protocol: as §1

U266 = system: U266; parameters: method as in earlier work; details: cited from earlier work
RPMI 8226 cells [7] = assay: Electron microscopy for MLBs, AVs and UVs; type: cell-based, human; details: 48 h, 10 μM drug (PBPE 40 μM)
RPMI 8226 and LP-1 cells [8] = assay: Degradation of long-lived proteins; type: cell-based, human; details: both cell lines, 10 μM OHT, 40 μM PBPE
Protocol: The degradation of long-lived proteins was measured as described previously. Briefly, HMCLs were incubated for 24 h at 37°C with 0.2 μCi/ml of L-[[14]C]valine in complete medium. Cells were then washed resuspended in medium with no nutrients but supplemented with 10 mM valine. After the first h of incubation, the chase medium was replaced by complete medium and the incubation continued for 5 h. […] Radiolabeled proteins present in the chase medium as well as in cells were precipitated with 10% trichloroacetic acid (v/v) at 4°C. Radioactivity was measured by scintillation counting. The rate of protein degradation was calculated from the ratio of radioactivity in the medium to that of precipitated cell fraction.

ChEH = ChEH (Homo sapiens, UniProt Q15125+Q9UBM7); assay: ChEH activity in HMCLs (TLC); type: cell-based; parameters: endogenous in cells; host or cells: RPMI 8226 and LP-1 human multiple myeloma cell lines; details: OHT, Tam, RU 58668 10 μM, PBPE 40 μM
Description: Cells were then pelleted and extracted with chloroform/methanol (2/1). The organic layer was reduced to dryness under a flux of argon and the residue was resuspended in EtOH. Samples were applied to thin layer chromatography (TLC) plates and developed using ethyl acetate as previously described. The radioactive metabolites were visualized by autoradiography using Kodak Biomax MS films.

[9] = RPMI 8226, presence of 500 μM Vit E

AEBS, sequence (Q15125 whole entry): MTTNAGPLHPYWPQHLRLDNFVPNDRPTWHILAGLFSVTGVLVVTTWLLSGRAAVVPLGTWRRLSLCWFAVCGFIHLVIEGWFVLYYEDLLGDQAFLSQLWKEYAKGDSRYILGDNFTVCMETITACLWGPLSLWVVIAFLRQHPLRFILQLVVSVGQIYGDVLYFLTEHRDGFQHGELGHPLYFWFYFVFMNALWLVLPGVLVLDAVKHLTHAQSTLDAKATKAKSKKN
AEBS, sequence (Q9UBM7 whole entry): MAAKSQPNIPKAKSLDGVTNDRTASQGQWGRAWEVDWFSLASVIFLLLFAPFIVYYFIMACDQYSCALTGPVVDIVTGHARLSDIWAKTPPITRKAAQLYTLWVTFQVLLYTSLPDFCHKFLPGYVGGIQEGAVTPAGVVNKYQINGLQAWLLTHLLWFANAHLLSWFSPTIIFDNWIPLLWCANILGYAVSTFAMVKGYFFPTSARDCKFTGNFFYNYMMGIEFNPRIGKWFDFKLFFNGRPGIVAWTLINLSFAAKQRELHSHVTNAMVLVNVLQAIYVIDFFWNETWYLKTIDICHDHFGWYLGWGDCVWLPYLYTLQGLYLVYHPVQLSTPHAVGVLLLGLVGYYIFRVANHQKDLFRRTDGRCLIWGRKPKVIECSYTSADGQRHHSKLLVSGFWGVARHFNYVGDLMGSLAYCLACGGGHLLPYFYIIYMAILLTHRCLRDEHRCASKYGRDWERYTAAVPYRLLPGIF
ChEH, sequence (Q15125 whole entry): as the sequence (Q15125 whole entry) above
ChEH, sequence (Q9UBM7 whole entry): as the sequence (Q9UBM7 whole entry) above

SMILES: CC/C(=C(\c1ccc(O)cc1)c1ccc(OCCN(C)C)cc1)c1ccccc1 [OHT]
- SERM and SERDs effects on MM cell lines (OPM-2): No response
- SERM and SERDs effects on MM cell lines (RPMI 8226): G1-arrest and apoptosis
- SERM and SERDs effects on MM cell lines (LP-1): G1-arrest and apoptosis
- SERM and SERDs effects on MM cell lines (NCI-H929): G1-arrest and apoptosis
- affinity for the AEBS (AEBS): high affinity
- tumor growth (MM tumors): block tumor growth
- SERM and SERDs effects on MM cell lines (Karpas 620): No response
- AV (LP-1 cells [1]; LP-1, absence of Vit E): + + (The sign + means that 80 % cells were positive and contained at least 5 vesicles)
- MLB (LP-1 cells [1]; LP-1, absence of Vit E): + + (The sign + means that 80 % cells were positive and contained at least 5 vesicles)
- UV (LP-1 cells [1]; LP-1, absence of Vit E): + (The sign + means that 80 % cells were positive and contained at least 5 vesicles)
- AV (LP-1 cells [1]; LP-1, presence of 500 μM Vit E): + + (The sign + means that 80 % cells were positive and contained at least 5 vesicles)
- MLB (LP-1 cells [1]; LP-1, presence of 500 μM Vit E): + + (The sign + means that 80 % cells were positive and contained at least 5 vesicles)
- UV (LP-1 cells [1]; LP-1, presence of 500 μM Vit E): − (otherwise they were considered as negative (-))
- free sterol accumulated (HMCLs): accumulation of desmosterol
- 5,6-EC (LP-1 cells [2]; LP-1, absence of Vit E): +
- 5,6-EC (LP-1 cells [2]; LP-1, presence of 500 μM Vit E): −
- 5,6-EC (RPMI 8226 cells [3]; RPMI 8226, absence of Vit E): +
- 5,6-EC (RPMI 8226 cells [3]; [9]): −
- intracellular free sterol, triacylglycerol (TG) and sphingomyelin (SM) contents (RPMI 8226 and LP-1 cells [4]): increases
- Desmosterol (LP-1 cells [5]): 44.4 percent by the weight of total sterol
- Zymostenol (LP-1 cells [5]): 1.9 percent by the weight of total sterol
- Zymostenol (RPMI 8226 cells [6]): 1.8 percent by the weight of total sterol
- SERM and SERDs effects on MM cell lines (U266): G1-arrest and apoptosis
- AV (RPMI 8226 cells [7]; RPMI 8226, absence of Vit E): + + (The sign + means that 80 % cells were positive and contained at least 5 vesicles)
- MLB (RPMI 8226 cells [7]; RPMI 8226, absence of Vit E): + + (The sign + means that 80 % cells were positive and contained at least 5 vesicles)
- UV (RPMI 8226 cells [7]; RPMI 8226, absence of Vit E): + (The sign + means that 80 % cells were positive and contained at least 5 vesicles)
- AV (RPMI 8226 cells [7]; [9]): + + (The sign + means that 80 % cells were positive and contained at least 5 vesicles)
- MLB (RPMI 8226 cells [7]; [9]): + + (The sign + means that 80 % cells were positive and contained at least 5 vesicles)
- UV (RPMI 8226 cells [7]; [9]): − (otherwise they were considered as negative (-))
- rate of long-lived protein degradation (RPMI 8226 and LP-1 cells [8]): stimulated
- ChEH activity, conversion of 5,6-EC into CT by TLC (ChEH): ChEH activity was inhibited
